Reference: EP1709964A2, “A method of cosmetic depigmentation care by applying at least one aurone” (ENGELHARD LYON, priority 2005, dated 2006)
Read-outs that look alike come from different tables or passages of the source.

What was measured:
Human tyrosinase = target: T1, Human tyrosinase (Homo sapiens, UniProt P14679); experiment: Inhibition of human tyrosinase in a monolayer after 24 h application of the actives on normal human melanocytes (MBTH/L-Dopa, OD 490 nm/protein); format: cell-based; settings: for inhibition at 100 µM / inhibition at 10 µM: read-out: Inhibition of human tyrosinase after application on normal human melanocytes, percentage inhibition; for Inhibition (%): model of Example 15
T1 construct: Normal human melanocytes (originating from abdominal plasty) are sown in a 24-well plate; endogenous in cells; host or cells: normal human melanocytes from abdominal plasty; donors of light, brown and black phototype
T1 sequence (P14679 19-529): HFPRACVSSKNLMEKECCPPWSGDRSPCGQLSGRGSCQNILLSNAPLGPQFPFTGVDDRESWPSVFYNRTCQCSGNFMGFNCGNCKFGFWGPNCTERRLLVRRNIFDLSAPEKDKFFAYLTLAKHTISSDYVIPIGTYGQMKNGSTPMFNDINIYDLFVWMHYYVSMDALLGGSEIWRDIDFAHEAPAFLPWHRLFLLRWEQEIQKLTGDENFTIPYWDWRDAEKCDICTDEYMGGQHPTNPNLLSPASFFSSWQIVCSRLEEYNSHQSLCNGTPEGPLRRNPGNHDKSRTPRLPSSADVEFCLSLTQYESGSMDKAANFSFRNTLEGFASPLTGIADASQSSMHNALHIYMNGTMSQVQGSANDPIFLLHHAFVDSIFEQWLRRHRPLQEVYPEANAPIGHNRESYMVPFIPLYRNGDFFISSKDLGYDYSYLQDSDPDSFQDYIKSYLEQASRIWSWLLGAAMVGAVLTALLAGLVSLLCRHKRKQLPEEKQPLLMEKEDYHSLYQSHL
Method: Normal human melanocytes (originating from abdominal plasty) are sown in a 24-well plate at the rate of 80,000 cells per well. They are cultivated up to confluence and the actives are applied for 24 hours in the culture media. After 24 hours, the media are removed and the melanocytes are picked up by mechanical action. An extraction is made by heat shock and the supernatants are then recovered and then incubated with MBTH (Sigma) and L-Dopa (Sigma).
The compound obtained in Example 9b was tested on melanocytes originating from various donors but of light phototypes according to the method described in Example 15. […] Table 6 : Inhibition of tyrosinase by compound 9b on 4 different donors.
The compound obtained in Example 9b is tested on cultures of melanocytes originating from 2 donors of brown phototypes and from one donor of negroid phototype. The method applied is that described in Example 15.
A study is made with molecules known in the literature for their depigmenting activity. These molecules are applied to the model described in Example 15 so as to compare their efficiency with respect to the aurones described above.

tyrosinase from mushroom = experiment: In vitro test of the inhibition of isolated tyrosinase (L-DOPA to dopachrome, OD 490 nm); format: biochemical; settings: kojic acid at 0.01%
Text: Tyrosinase catalyses the formation of L-dopaquinone, and then dopachrome, from L-Dopa. Dopachrome is a colored compound which is quantifiable by visible spectrophotometry at 490 nm. The use of an active which is capable of modifying the enzymatic activity manifests itself by a variation in the optical density at 490nm.
The ratio of the rates of formation of the dopachrome enables the activations or the inhibitions obtained with the various molecules tested to de determined precisely.
The sample to be tested is incubated in the presence of tyrosinase from mushroom (Sigma) for 5 minutes under agitation. L-DOPA (Sigma), substrate of the tyrosinase, is incubated for 10 minutes in the dark in the presence or the absence of the molecules to be tested. The calculation of the percentage inhibition is made by comparing the OD of the test to the OD of the negative control without molecule.
Within the context of this in vitro test, the aurone derivatives were tested at final concentrations of 10^-4M and 10^-5M.

Row | Structure (SMILES) | inhibition at 100 µM (Human tyrosinase; 10^-4M, 24 hours) | inhibition at 10 µM (Human tyrosinase; 10^-5M, 24 hours) | further results
1 | CCc1ccc(/C=C2\Oc3cc(OC)cc(OC)c3C2=O)s1 [Example 5r, (Z)-4,6-Dimethoxy-2-[(5-ethylthiophene)methylene]benzofuran-3(2H)-one] | 11.9% | 2.1% | 
2 | COc1cc(OC)c2c(c1)O/C(=C\c1ccc(S(=O)(=O)O)cc1)C2=O [Example 5e, (Z)-4,6-dimethoxy-2-(4'-sulfonatebenzylidene)benzofuran-3(2H)-one] | 0% | 1.44% | 
3 | O=C1/C(=C/c2ccccc2)Oc2cc(O)cc(O)c21 [Example 7, (Z)-2-Benzylidene-(4,6-dihydroxy) benzofuran-3(2H)-one] | 3.37% | 34.9% | Inhibition of human tyrosinase after application on normal human melanocytes, percentage inhibition (Human tyrosinase; 10^-4M, 24 hours): 3.37 ± 4.8%; Inhibition of human tyrosinase after application on normal human melanocytes, percentage inhibition (Human tyrosinase; 10^-5M, 24 hours): 34.85 ± 3.04%
4 | COc1ccc(/C=C2\Oc3cc(O)cc(O)c3C2=O)cc1 [Example 9, (Z)-4,6-Dihydroxy-2-(4-methoxybenzylidene)benzofuran-3(2H)-one] | 10.7% | 14.1% | 
5 | COc1cc(OC)c2c(c1)O/C(=C\c1ccc(S(=O)(=O)O)cc1S(=O)(=O)O)C2=O [Example 5f, (Z)-4,6-dimethoxy-2-(2',4'-disulfonatebenzylidene)benzofuran-3(2H)-one] | 9.36% | 2.88% | 
6 | CCc1ccc(/C=C2\Oc3cc(O)ccc3C2=O)cc1 [Example 3a, (Z)-2-(4'-Ethyl)Benzylidene-6-Hydroxybenzofuran-3(2H)-one] | 0% | 23.9% | 
7 | O=c1cc(-c2ccc(O)cc2)oc2cc(O)cc(O)c12 [Apigenin, reference compound] | -59.1 ± 23% | -40.8 ± 7.68% | 
8 | O=c1cc(-c2ccccc2)oc2cc(O)cc(O)c12 [Chrysin, reference compound] |  | -6.1 ± 22.9% | 
9 | COc1cc(OC)c2c(c1)O/C(=C\c1ccc(C)s1)C2=O [Example 5q, (Z)-4,6-Dimethoxy-2-[(5-methylthiophene)methylene]benzofuran-3(2H)-one] | 4.8% | 0% | 
10 | O=c1cc(CO)occ1O [Kojic acid, kojic acid] |  |  | inhibition (positive control) (tyrosinase from mushroom): 45%
11 | O=C1/C(=C/c2ccc[nH]2)Oc2cc(O)cc(O)c21 [Example 7s, (Z)-4,6-Dihydroxy-2-[(pyrrole)methylene]benzofuran-3(2H)-one] |  |  | inhibition at 10 µM (Human tyrosinase): 9.1%; inhibition at 100 µM (Human tyrosinase): 22.8%
12 | O=C1O[C@H]([C@@H](O)CO)C(O)=C1O [VitC, Vitamin C, reference compound] |  |  | Inhibition (%) (Human tyrosinase; 0.03%): -5.68%; Inhibition (%) (Human tyrosinase; 0.3%): 49.28%; Inhibition (%) (Human tyrosinase; 3%): 97.77%
13 | COc1cc(OC)c2c(c1)O/C(=C\c1[nH]c(C)cc1C)C2=O [Example 5t, (Z)-4,6-Dimethoxy-2-[(3,5-dimethylpyrrole)methylene]benzofuran-3(2H)-one] | 5.1% | 0% | 
14 | COc1cc(OC)c2c(c1)O/C(=C\c1cccs1)C2=O [Example 5p, (Z)-4,6-Dimethoxy-2-[(thiophene)methylene]benzofuran-3(2H)-one] | 31.3% | 6.4% | 
15 | CCc1ccccc1/C=C1\Oc2cc(O)ccc2C1=O [Example 3b, (Z)-2-(2'-Ethyl)Benzylidene-6-Hydroxybenzofuran-3(2H)-one] | 0% | 0% | 
16 | COc1cc(OC)c2c(c1)O/C(=C\c1ccco1)C2=O [Example 5m, (Z)-4,6-Dimethoxy-2-[(furan)methylene]benzofuran-3(2H)-one] | 19.5% | 6.4% | 
17 | COc1cc(OC)c2c(c1)O/C(=C\c1ccc[nH]1)C2=O [Example 5s, (Z)-4,6-Dimethoxy-2-[(pyrrole)methylene]benzofuran-3(2H)-one] |  |  | inhibition at 10 µM (Human tyrosinase): 0%; inhibition at 100 µM (Human tyrosinase): 13.7%
18 | CCc1ccc(/C=C2\Oc3cc(OC)cc(OC)c3C2=O)o1 [Example 5n, (Z)-4,6-Dimethoxy-2-[(5-ethylfuran)methylene]benzofuran-3(2H)-one] | 7.8% | 0% | 
19 | COc1cc(OC)c2c(c1)O/C(=C\c1cc(C)c(C)o1)C2=O [Example 5o, (Z)-4,6-Dimethoxy-2-[(4,5-dimethylfuran)methylene]benzofuran-3(2H)-one] | 23.2% | 12.1% | 

More lines, main results first:

Row | inhibition at 100 µM (Human tyrosinase; 10^-4M, 24 hours) | inhibition at 10 µM (Human tyrosinase; 10^-5M, 24 hours) | Structure (SMILES) | further results
20 | 13.8% | 0% | CCc1ccc(/C=C2\Oc3cc(O)cc(O)c3C2=O)s1 [Example 7r, (Z)-4,6-Dihydroxy-2-[(5-ethylthiophene)methylene]benzofuran-3(2H)-one] | 
21 | 5.43% | 26.9% | CCCc1ccc(/C=C2\Oc3cc(O)cc(O)c3C2=O)cc1 [Example 7h] | 
22 | 28.5% | 13.4% | CCc1ccc(/C=C2\Oc3cc(O)cc(O)c3C2=O)o1 [Example 7n, (Z)-4,6-Dihydroxy-2-[(5-ethylfuran)methylene]benzofuran-3(2H)-one] | 
23 | 0% | 25.1% | CC(C)(C)c1ccc(/C=C2\Oc3cc(O)cc(O)c3C2=O)cc1 [Example 7k] | 
24 | 23.6% | 6.4% | O=C1/C(=C/c2ccco2)Oc2cc(O)cc(O)c21 [Example 7m, (Z)-4,6-Dihydroxy-2-[(furan)methylene]benzofuran-3(2H)-one] | 
25 | 13.6% | 4.5% | Cc1cc(/C=C2\Oc3cc(O)cc(O)c3C2=O)oc1C [Example 7o, (Z)-4,6-Dihydroxy-2-[(4,5-dimethylfuran)methylene]benzofuran-3(2H)-one] | 
26 | 5.25% | 19.9% | CCOc1ccc(/C=C2\Oc3cc(O)cc(O)c3C2=O)cc1 [Example 9a, (Z)-4,6-Dihydroxy-2-(4'-ethoxybenzylidene)benzofuran-3(2H)-one] | 
27 | 12.8% | 4.32% | O=C1/C(=C/c2ccccc2O)Oc2cc(O)cc(O)c21 [Example 9c] | 
28 | 35.2% | 15.3% | O=C1/C(=C/c2cccs2)Oc2cc(O)cc(O)c21 [Example 7p, (Z)-4,6-Dihydroxy-2-[(thiophene)methylene]benzofuran-3(2H)-one] | 
29 | 0% | 4.83% | O=C1/C(=C/c2ccc(S(=O)(=O)O)cc2)Oc2cc(O)cc(O)c21 [Example 7e] | 
30 | 16.4% | 7% | Cc1ccc(/C=C2\Oc3cc(O)cc(O)c3C2=O)s1 [Example 7q, (Z)-4,6-Dihydroxy-2-[(5-methylthiophene)methylene]benzofuran-3(2H)-one] | 
31 | 0% | 31.9% | CC(C)c1ccc(/C=C2\Oc3cc(O)cc(O)c3C2=O)cc1 [Example 7i] | 
32 | 3.92% | 20.2% | COc1cc(/C=C2\Oc3cc(O)cc(O)c3C2=O)ccc1O [Example 9d] | 
33 | 0% | 6.1% | CCc1ccccc1/C=C1\Oc2cc(O)cc(O)c2C1=O [Example 7l] | 
34 | 26.4% | 0% | Cc1cc(C)c(/C=C2\Oc3cc(O)cc(O)c3C2=O)[nH]1 [Example 7t, (Z)-4,6-Dihydroxy-2-[(3,5-dimethylpyrrole)methylene]benzofuran-3(2H)-one] | 
